Consider 9 compounds from US20180008587A1, “THIOHYDANTOIN ANDROGEN RECEPTOR ANTAGONISTS FOR THE TREATMENT OF CANCER” (Jaressen Pharmaceutica NV, priority 2016, published 2018).

What all share (type): cell-based
For experiment [1], the target named is T1, F876L mutant Androgen Receptor (AR-F876L) (Homo sapiens, UniProt P10275, F877L).
T1 construct: expressed in transfected cells; host or cells: LNCaP (LNCaP F876L)
T1 sequence (P10275 1-920 F877L): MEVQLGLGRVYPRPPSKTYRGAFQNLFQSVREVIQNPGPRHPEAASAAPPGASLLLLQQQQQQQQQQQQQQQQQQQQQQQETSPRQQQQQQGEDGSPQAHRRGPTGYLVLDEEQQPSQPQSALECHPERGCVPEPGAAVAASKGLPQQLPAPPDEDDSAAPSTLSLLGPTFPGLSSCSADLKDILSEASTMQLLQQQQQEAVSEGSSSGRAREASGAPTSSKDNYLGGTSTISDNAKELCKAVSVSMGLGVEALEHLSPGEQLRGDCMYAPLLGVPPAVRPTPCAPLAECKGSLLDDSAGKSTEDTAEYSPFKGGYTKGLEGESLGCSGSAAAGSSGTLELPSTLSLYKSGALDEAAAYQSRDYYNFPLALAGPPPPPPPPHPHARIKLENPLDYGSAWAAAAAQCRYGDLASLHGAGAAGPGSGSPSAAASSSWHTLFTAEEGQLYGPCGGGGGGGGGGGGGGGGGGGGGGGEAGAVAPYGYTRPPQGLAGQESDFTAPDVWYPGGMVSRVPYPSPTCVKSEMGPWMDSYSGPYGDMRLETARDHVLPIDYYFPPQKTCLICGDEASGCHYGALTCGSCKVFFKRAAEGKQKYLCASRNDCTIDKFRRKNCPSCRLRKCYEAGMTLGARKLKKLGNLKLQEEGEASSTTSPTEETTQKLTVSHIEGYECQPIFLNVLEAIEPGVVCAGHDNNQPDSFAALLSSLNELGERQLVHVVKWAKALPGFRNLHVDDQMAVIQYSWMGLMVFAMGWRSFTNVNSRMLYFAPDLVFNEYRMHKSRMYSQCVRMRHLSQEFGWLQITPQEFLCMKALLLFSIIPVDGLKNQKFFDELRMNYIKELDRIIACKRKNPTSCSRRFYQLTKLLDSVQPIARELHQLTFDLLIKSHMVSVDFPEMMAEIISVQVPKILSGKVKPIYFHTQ
In words: LNCaP-AR-F876L ANT reporter assay (ARE firefly luciferase, antagonist mode). The note with it: for Emax: read-out: LNCaP-AR-F876L ANT MAX % Inh; for IC50: read-out: LNCaP-AR-F876L ANT pIC50 (converted). The procedure: (§1) A stable pooled-population cell line was generated using puromycin (Life Technologies) selection at 1:10,000 v/v. The protocol below was used for both cell lines and for testing of the compounds of Formula (I) of the present invention.
(§2) LNCaP cells were grown to about 80% confluence, media removed and cells rinsed in Hank's balanced salt solution prior to separation from the plate with 0.05% Trypsin EDTA. Cells were lifted and trypsin negated in complete CSS (charcoal stripped serum) culture media. […] Agonist challenge was at 400 pM for WT assay and 600 pM for F876L assay. Plates containing cells and compounds herein were incubated for a further 20-24 hours at 37° C., 5% CO2 before addition of 40 μL/well of Steady-Glo Luciferase Assay System Reagent (Promega# E2520). After 1 h, plates were read for luminescence on a BMG Pherastar.
(§3) EC/IC50 calculations were achieved utilizing calculated RLU data and data fitting macros. Data were fit using least-squares methods to the following formula: […]
Background: Reporter assays use an easily measured gene product as a stand-in for the process of interest.

The target in experiment [2] is T2, wild-type Androgen Receptor (AR-wt) (Homo sapiens, UniProt P10275).
T2 construct: expressed in transfected cells; host or cells: LNCaP (LNCaP AR (cs))
T2 sequence (P10275 1-920): T1 sequence (P10275 1-920 F877L) with L877F
In words: LNCaP-AR-wt ANT reporter assay (ARE firefly luciferase, antagonist mode). The note with it: for IC50: antagonist mode, 400 pM R-1881 challenge, −Log10(IC50 [Molar]), read-out: LNCaP-AR-wt ANT pIC50 (converted); for Emax: read-out: LNCaP-AR-wt ANT MAX % Inh. The procedure: as §1, §2, §3

Experiment [3] addresses T2, wild-type Androgen Receptor (AR-wt). Nature of the experiment: LNCaP-AR-wt AG reporter assay (ARE firefly luciferase, agonist mode). To be noted: for Emax: read-out: LNCaP-AR-wt AG MAX % Stim. The procedure:
as §1, §2, §3

For experiment [4], the target named is T1, F876L mutant Androgen Receptor (AR-F876L). In words: LNCaP-AR-F876L AG reporter assay (ARE firefly luciferase, agonist mode). The note with it: for Emax: read-out: LNCaP-AR-F876L AG MAX % Stim. The procedure: as §1, §2, §3
[5] abbreviates: maximum % inhibition of R1881 control response over tested concentration range.
Where [6] appears, read: agonist mode, −Log10(EC50 [Molar]), read-out: LNCaP-AR-wt AG pEC50 (converted).
The mark [7] stands for this setting: maximum % stimulation (agonist response) over tested concentration range.
Where [8] appears, read: agonist mode, −Log10(EC50 [Molar]), read-out: LNCaP-AR-F876L AG pEC50 (converted).

Positions count from the first letter of the chain named. Like-named read-outs stand apart in the source and are kept apart here.

With `N#Cc1ncc(N2C(=O)C3(CCC3)N(c3ccc4ccccc4c3)C2=S)cc1C(F)(F)F` [Cpd 18, 5-[8-(2-naphthyl)-5-oxo-7-thioxo-6,8-diazaspiro[3.4]octan-6-yl]-3-(trifluoromethyl)pyridine-2-carbonitrile], the Emax in experiment [1] was 101%; in experiment [2] it was 101%; in experiment [3], -0.2%; in experiment [4], 0%. The IC50 was 191 nM in experiment [1] and 204 nM in experiment [2]. The EC50 in experiment [3] and in experiment [4] was > 15100 nM in each case.
In the case of `CN1CCC(Oc2ccc(N3C(=S)N(c4cnc(C#N)c(C(F)(F)F)c4)C(=O)C3(C)C)cc2)CC1` [Cpd 19, 5-[4,4-dimethyl-3-[4-[(1-methyl-4-piperidyl)oxy]phenyl]-5-oxo-2-thioxo-imidazolidin-1-yl]-3-(trifluoromethyl)pyridine-2-carbonitrile], the Emax in experiment [1] stood at 98.1%; in experiment [2], 99.6%; in experiment [3], 0.3%; in experiment [4], 0.2%. Further, the IC50 in experiment [1] was 525 nM; in experiment [2], 871 nM. Besides, the EC50 in experiment [3] and in experiment [4] was > 15100 nM throughout.
For `N#Cc1ncc(N2C(=O)C3(CCC3)N(c3cccc(Oc4ccccc4)c3)C2=S)cc1C(F)(F)F` [Cpd 20, 5-[5-oxo-8-(3-phenoxyphenyl)-7-thioxo-6,8-diazaspiro[3.4]octan-6-yl]-3-(trifluoromethyl)pyridine-2-carbonitrile], the Emax in experiment [1] (setting [5]) stood at 95.4%; in experiment [2] (setting [5]), 90%; in experiment [3] (setting [7]), 1.3%; in experiment [4] (setting [7]) it was 0.2%. Also, the results for the IC50 in experiment [1] and in experiment [2] were 977 nM and 1320 nM, respectively. Further, the EC50 in experiment [3] (setting [6]) and in experiment [4] (setting [8]) was > 15100 nM throughout.
For `N#Cc1ncc(N2C(=O)C3(CCC3)N(c3ccc(C(=O)NCC4CCCC4)c(F)c3)C2=S)cc1C(F)(F)F` [Cpd 21, 4-[6-[6-cyano-5-(trifluoromethyl)-3-pyridyl]-5-oxo-7-thioxo-6,8-diazaspiro[3.4]octan-8-yl]-N-(cyclopentylmethyl)-2-fluoro-benzamide], the Emax in experiment [1] (setting [5]) was 98.6%; in experiment [2] (setting [5]), 100%; in experiment [3] (setting [7]), -0.2%; in experiment [4] (setting [7]), 0.1%. Besides, the IC50 is 389 nM in experiment [1] and 724 nM in experiment [2]. The EC50 in experiment [3] (setting [6]) and in experiment [4] (setting [8]) was > 15100 nM throughout.
`N#Cc1ncc(N2C(=O)C3(CCC3)N(c3ccc(C(=O)NCCN4CCOCC4)c(F)c3)C2=S)cc1C(F)(F)F` [Cpd 22, 4-[6-[6-cyano-5-(trifluoromethyl)-3-pyridyl]-5-oxo-7-thioxo-6,8-diazaspiro[3.4]octan-8-yl]-2-fluoro-N-(2-morpholinoethyl)benzamide]: the Emax in experiment [1] (setting [5]) was 99.7%; in experiment [2] (setting [5]), 99.5%; in experiment [3] (setting [7]) it was 0%; in experiment [4] (setting [7]), 0.1%. In addition, the results for the IC50 in experiment [1] and in experiment [2] were 724 nM and 2450 nM, respectively. Also, the EC50 in experiment [3] (setting [6]) and in experiment [4] (setting [8]) was > 15100 nM in each case.
In the case of `CC(C)NC(=O)c1ccc(N2C(=S)N(c3cnc(C#N)c(C(F)(F)F)c3)C(=O)C23CCC3)cc1F` [Cpd 23, 4-[6-[6-cyano-5-(trifluoromethyl)-3-pyridyl]-5-oxo-7-thioxo-6,8-diazaspiro[3.4]octan-8-yl]-2-fluoro-N-isopropyl-benzamide], the Emax in experiment [1] (setting [5]) amounted to 99.6%; in experiment [2] (setting [5]) it was 99.4%; in experiment [3] (setting [7]), 0.9%; in experiment [4] (setting [7]) it was 0%. Also, the values for the IC50 in experiment [1] and in experiment [2] were 347 nM and 1260 nM, respectively. Also, the EC50 in experiment [3] (setting [6]) and in experiment [4] (setting [8]) was > 15100 nM throughout.
With `COCCCNC(=O)c1ccc(N2C(=S)N(c3cnc(C#N)c(C(F)(F)F)c3)C(=O)C23CCC3)cc1F` [Cpd 24, 4-[6-[6-cyano-5-(trifluoromethyl)-3-pyridyl]-5-oxo-7-thioxo-6,8-diazaspiro[3.4]octan-8-yl]-2-fluoro-N-(3-methoxypropyl)benzamide], the Emax is 99.5% in experiment [1] (setting [5]), 100% in experiment [2] (setting [5]), 0% in experiment [3] (setting [7]) and 0.1% in experiment [4] (setting [7]). The IC50 in experiment [1] is 229 nM; in experiment [2], 331 nM. For the same compound, the EC50 in experiment [3] (setting [6]) and in experiment [4] (setting [8]) was > 15100 nM each time.
Regarding `CNS(=O)(=O)c1ccc(N2C(=S)N(c3cnc(C#N)c(C(F)(F)F)c3)C(=O)C23CCC3)cc1` [Cpd 25, 4-[6-[6-cyano-5-(trifluoromethyl)-3-pyridyl]-5-oxo-7-thioxo-6,8-diazaspiro[3.4]octan-8-yl]-N-methyl-benzenesulfonamide], the Emax in experiment [1] (setting [5]) was 99.7%; in experiment [2] (setting [5]), 98%; in experiment [3] (setting [7]), 1.5%; in experiment [4] (setting [7]), 0.2%. Further, the IC50 in experiment [1] is 525 nM; in experiment [2], 1000 nM. Also, the EC50 in experiment [3] (setting [6]) and in experiment [4] (setting [8]) was > 15100 nM throughout.
With `Cc1ccc(CNC(=O)c2ccc(N3C(=S)N(c4cnc(C#N)c(C(F)(F)F)c4)C(=O)C34CCC4)cc2F)o1` [Cpd 26, 4-[6-[6-cyano-5-(trifluoromethyl)-3-pyridyl]-5-oxo-7-thioxo-6,8-diazaspiro[3.4]octan-8-yl]-2-fluoro-N-[(5-methyl-2-furyl)methyl]benzamide], the Emax in experiment [1] (setting [5]) came out at 97.9%; in experiment [2] (setting [5]) it was 97.9%; in experiment [3] (setting [7]), 1.1%; in experiment [4] (setting [7]), 0.3%. Further, the IC50 was 891 nM in experiment [1] and 813 nM in experiment [2]. Further, the EC50 in experiment [3] (setting [6]) and in experiment [4] (setting [8]) was > 15100 nM each time.
